Assay results: the CheMixHub viscosity set
“And” between values parts separate entries of the source, which are not always exact repeats. Identical values can stand only once.

What was measured:
[1] = xn = mol fraction of the nth substance listed

C=C(C)C(=O)OC
viscosity
Settings | 298.15 K | 303.15 K | 308.15 K | 313.15 K
101 kPa | 0.5625 mPa·s | 0.5142 mPa·s and 0.524 mPa·s | 0.4932 mPa·s | 0.4684 mPa·s
101.3 kPa | 0.584 mPa·s | – | 0.492 mPa·s | –

CCCC[P+](C)(CCCC)CCCC.COS(=O)(=O)[O-]
viscosity
Settings | 293.15 K | 298.15 K | 303.15 K | 308.15 K | 313.15 K | 318.15 K | 323.15 K
100 kPa | 729.1 mPa·s and 729.1 mPa·s | 521.3 mPa·s and 521.3 mPa·s | 381.4 mPa·s and 381.4 mPa·s | 286.1 mPa·s and 286.1 mPa·s | 217 mPa·s and 217 mPa·s | 169.1 mPa·s and 169.1 mPa·s | 133.4 mPa·s and 133.4 mPa·s
101 kPa | 729.1 mPa·s | 521.3 mPa·s | 381.4 mPa·s | 286.1 mPa·s | 217 mPa·s | 169.1 mPa·s | 133.4 mPa·s

CC1(c2ccccc2)OC1C#N (centres undefined)
101 kPa
Settings | viscosity [mPa·s]
293.15 K | 11.77
298.15 K | 9.155
303.15 K | 7.386
313.15 K | 5.17
323.15 K | 3.522

CCOC(C)OCC
101 kPa
Settings | viscosity [mPa·s]
303.1 K | 0.404
313.1 K | 0.364

FC1CC(F)(F)C(F)(F)C1(F)F (centres undefined)
101 kPa
Settings | viscosity [mPa·s]
298.15 K | 1.65
313.15 K | 1.28
323.15 K | 1.08

CCCC[n+]1ccn(C)c1.O=C([O-])C(F)(F)F
101 kPa
Settings | viscosity [mPa·s]
298.15 K | 52.9
303.15 K | 58
313.15 K | 37.83
323.15 K | 26.11

C[N+](C)(C)CCC[N+]1(C)CCCCC1.N#C[N-]C#N.N#C[N-]C#N + CO
viscosity [mPa·s], [1], 100 kPa
Settings | 303.15 K | 313.15 K | 323.15 K
x1 = 0.0999 | – | – | 2.735
x1 = 0.7998 | 918.9 | 488.5 | –

C[N+](C)(C)CCC[N+]1(C)CCCCC1.N#C[N-]C#N.N#C[N-]C#N
100 kPa
Settings | viscosity
293.15 K | 4503 mPa·s and 4503 mPa·s
298.15 K | 2819 mPa·s
303.15 K | 1837 mPa·s and 1837 mPa·s
308.15 K | 1224 mPa·s
313.15 K | 856.1 mPa·s and 856.1 mPa·s
318.15 K | 618.5 mPa·s
323.15 K | 460.1 mPa·s and 460.1 mPa·s

ClCCCCCCCl + Cc1ccc(C)cc1
viscosity [mPa·s], [1], 101 kPa
Settings | x1 = 0.08955 | x1 = 0.1825 | x1 = 0.2818 | x1 = 0.3684 | x1 = 0.4454 | x1 = 0.5735 | x1 = 0.6793 | x1 = 0.7843 | x1 = 0.8888
308.15 K | 0.586 | 0.645 | 0.722 | 0.802 | 0.878 | 1.027 | 1.154 | 1.307 | 1.45
313.15 K | 0.558 | 0.621 | 0.686 | 0.756 | 0.83 | 0.972 | 1.095 | 1.242 | 1.378
318.15 K | 0.534 | 0.595 | 0.653 | 0.714 | 0.78 | 0.899 | 1.014 | 1.134 | 1.267

C=C(C)C(=O)OC + ClCCCl
[1], 303.15 K, 101 kPa
Settings | viscosity [mPa·s]
x1 = 0.1012 | 0.6868
x1 = 0.1978 | 0.6544
x1 = 0.3975 | 0.6068
x1 = 0.4985 | 0.5867
x1 = 0.6234 | 0.5632
x1 = 0.8713 | 0.5284

O=C(O)CCCC(=O)O + C[N+](C)(C)CCO.[Cl-]
[1], 100 kPa, x2 = 0.5
Settings | viscosity [mPa·s]
293.15 K | 2968
298.15 K | 2015
303.15 K | 1408
308.15 K | 1007
313.15 K | 735.8
318.15 K | 547.5
323.15 K | 414.6

ClCCCCCCCl + Cc1ccccc1
viscosity [mPa·s], [1], 101 kPa
Settings | x1 = 0.07864 | x1 = 0.1578 | x1 = 0.2467 | x1 = 0.3346 | x1 = 0.4309 | x1 = 0.533 | x1 = 0.6475 | x1 = 0.755 | x1 = 0.8707
308.15 K | 0.536 | 0.604 | 0.676 | 0.764 | 0.868 | 0.978 | 1.121 | 1.267 | 1.44
313.15 K | 0.514 | 0.57 | 0.639 | 0.712 | 0.807 | 0.911 | 1.043 | 1.175 | 1.345
318.15 K | 0.49 | 0.543 | 0.605 | 0.682 | 0.769 | 0.865 | 0.983 | 1.095 | 1.228

C=C(C)C(=O)OC + CCCCCC
[1], 303.15 K, 101 kPa
Settings | viscosity [mPa·s]
x1 = 0.1029 | 0.2962
x1 = 0.2077 | 0.3069
x1 = 0.4005 | 0.3338
x1 = 0.5052 | 0.3523
x1 = 0.6046 | 0.3758
x1 = 0.7056 | 0.4934

C=C(C)C(=O)OC + CC(C)OC(C)C
viscosity [mPa·s], [1], 101.3 kPa
Settings | 298.15 K | 308.15 K
x1 = 0.0416 | 0.385 | 0.291
x1 = 0.1479 | 0.401 | 0.309
x1 = 0.2488 | 0.417 | 0.326
x1 = 0.3488 | 0.434 | 0.344
x1 = 0.4527 | 0.453 | 0.364
x1 = 0.4958 | 0.461 | 0.372
x1 = 0.5472 | 0.472 | 0.383
x1 = 0.6489 | 0.493 | 0.404
x1 = 0.7504 | 0.517 | 0.427
x1 = 0.8502 | 0.542 | 0.451
x1 = 0.944 | 0.569 | 0.474

ClCCCCCCCl
101 kPa
Settings | viscosity
308.15 K | 1.616 mPa·s
313.15 K | 1.533 mPa·s and 1.534 mPa·s
318.15 K | 1.387 mPa·s

CS(=O)(=O)[O-].C[NH+]1CCCC1=O + O
viscosity [mPa·s], [1], 100 kPa
Settings | x1 = 0.00179 | x1 = 0.003586 | x1 = 0.005368 | x1 = 0.008047 | x1 = 0.01067 | x1 = 0.01419 | x1 = 0.02096 | x1 = 0.0263 | x1 = 0.03141
293.15 K | 1.057 | 1.106 | 1.151 | 1.222 | 1.295 | 1.396 | 1.594 | 1.754 | 1.917
298.15 K | 0.9409 | 0.9808 | 1.02 | 1.08 | 1.146 | 1.233 | 1.409 | 1.551 | 1.681
303.15 K | 0.8421 | 0.8782 | 0.9124 | 0.9664 | 1.022 | 1.099 | 1.254 | 1.374 | 1.483
308.15 K | 0.7603 | 0.7902 | 0.8191 | 0.8672 | 0.9163 | 0.9865 | 1.126 | 1.232 | 1.325

C=C(C)C(=O)OC + CO
viscosity [mPa·s], [1], 101 kPa
Settings | x2 = 0.1152 | x2 = 0.2092 | x2 = 0.3024 | x2 = 0.4008 | x2 = 0.5011 | x2 = 0.6041 | x2 = 0.7013 | x2 = 0.8003 | x2 = 0.9033
293.15 K | 0.5752 | 0.5665 | 0.5622 | 0.5592 | 0.5546 | 0.5576 | 0.5612 | 0.5709 | 0.5792
298.15 K | 0.5416 | 0.5329 | 0.5294 | 0.5266 | 0.5222 | 0.5232 | 0.5269 | 0.5357 | 0.5425
303.15 K | 0.5126 | 0.5046 | 0.5012 | 0.4973 | 0.4928 | 0.4944 | 0.4965 | 0.5036 | 0.5088
308.15 K | 0.4841 | 0.4783 | 0.4739 | 0.4705 | 0.4665 | 0.4673 | 0.4689 | 0.4748 | 0.4792
313.15 K | 0.4611 | 0.4552 | 0.4511 | 0.4474 | 0.4428 | 0.4435 | 0.4441 | 0.4493 | 0.4529
318.15 K | 0.4391 | 0.4335 | 0.4297 | 0.4261 | 0.4212 | 0.4228 | 0.4243 | 0.4259 | 0.4285
323.15 K | 0.4195 | 0.4138 | 0.4101 | 0.4063 | 0.4022 | 0.4031 | 0.4043 | 0.4057 | 0.4065

CCCC[P+](C)(CCCC)CCCC.COS(=O)(=O)[O-] + CN1CCCC1=O
[1], 101 kPa
Settings | viscosity [mPa·s]
293.15 K, x1 = 0.2318 | 67.31
293.15 K, x1 = 0.6014 | 285.4
293.15 K, x1 = 0.7129 | 437.9
293.15 K, x1 = 0.8086 | 533
293.15 K, x1 = 0.9022 | 633.1
293.15 K, x1 = 0.9468 | 676.8
298.15 K, x1 = 0.2318 | 38.93
298.15 K, x1 = 0.2971 | 50.57
298.15 K, x1 = 0.3764 | 80.09
298.15 K, x1 = 0.7129 | 294.9
298.15 K, x1 = 0.8086 | 370.8
298.15 K, x1 = 0.8515 | 411.3
298.15 K, x1 = 0.9022 | 451.1
298.15 K, x1 = 0.9468 | 487
303.15 K, x1 = 0.0914 | 4.938
303.15 K, x1 = 0.1311 | 7.781
303.15 K, x1 = 0.2971 | 25.25
303.15 K, x1 = 0.3764 | 40.12
303.15 K, x1 = 0.4752 | 65.25
303.15 K, x1 = 0.8086 | 262.4
303.15 K, x1 = 0.8515 | 295.9
303.15 K, x1 = 0.9022 | 328.3
303.15 K, x1 = 0.9468 | 353.5
308.15 K, x1 = 0.0914 | 2.514
308.15 K, x1 = 0.1311 | 3.429
308.15 K, x1 = 0.1773 | 6.412
308.15 K, x1 = 0.2318 | 8.924
308.15 K, x1 = 0.4752 | 30.51
308.15 K, x1 = 0.6014 | 66.52
308.15 K, x1 = 0.9468 | 268.4
313.15 K, x1 = 0.1311 | 3.214
313.15 K, x1 = 0.1773 | 4.514
313.15 K, x1 = 0.2318 | 6.789
313.15 K, x1 = 0.7129 | 95.25
318.15 K, x1 = 0.1311 | 4.512
318.15 K, x1 = 0.1773 | 6.412
318.15 K, x1 = 0.2318 | 7.124
318.15 K, x1 = 0.6014 | 31.78
318.15 K, x1 = 0.7129 | 72.62
323.15 K, x1 = 0.0914 | 2.515
323.15 K, x1 = 0.1311 | 3.845
323.15 K, x1 = 0.1773 | 5.672
323.15 K, x1 = 0.7129 | 59.09
323.15 K, x1 = 0.8086 | 88.33

CC(N)(CO)CO + O
viscosity [mPa·s], [1], 101.3 kPa
Settings | 303.15 K | 313.15 K | 323.15 K
x1 = 0.019 | 1.127 | 0.9018 | 0.7417
x1 = 0.041 | 1.683 | 1.307 | 1.045
x1 = 0.068 | 2.681 | 1.999 | 1.567

[I-].[Na+] + OCCO
[1], 101 kPa, x1 = 0.2
Settings | viscosity [mPa·s]
303 K | 47.72
313 K | 29.93
323 K | 20.08

C=C(C)C(=O)OC + Cc1ccccc1
[1], 303.15 K, 101 kPa
Settings | viscosity [mPa·s]
x1 = 0.1041 | 0.5201
x1 = 0.2049 | 0.5187
x1 = 0.4069 | 0.5163
x1 = 0.5046 | 0.5155
x1 = 0.6068 | 0.5148
x1 = 0.798 | 0.5141
x1 = 0.896 | 0.5141
